Assay results from patent US20230240293A1, “FUNGICIDAL COMPOSITIONS” (SYNGENTA CROP PROTECTION AG, priority 2020, published 2023).
Numbered stars: 1 amine (or outer) side, 2 acyl side, 3 side chain; on linkers, the order of the positions; unused ones are H or OH. Square brackets hold non-standard residues; d marks the D form. Peptide text beside a SMILES is read from it. ξ: configuration not given here. ξNMeVal(3-OH) = CNC(C(=O)O)C(C)(C)O; NMeF = CN[CH](Cc1ccccc1)C(=O)O; X1 = CCC(C)C(O[*:1])C(=O)[*:2]; NMeV = CN[CH](C(=O)O)C(C)C

Columns and labels:
Botrytis cinerea = assay: microbe, parasite or virus in culture; assay type: cell-based; details: 72 hours
Description: (§1) A synergistic effect exists whenever the action of an active ingredient combination is greater than the sum of the actions of the individual components. The action to be expected E for a given active ingredient combination obeys the so-called COLBY formula and can be calculated as follows (COLBY, S.R. “Calculating synergistic and antagonistic responses of herbicide combination”, Weeds, Vol. 15, pages 20-22; 1967): • ppm = milligrams of active ingredient (= a.i.) per liter of spray mixture, • X = % action by active ingredient (A) using p ppm of active ingredient, • Y = % action by active ingredient (B) using q ppm of active ingredient. • According to COLBY, the expected (additive) action of active ingredients (A)+(B) using p+q ppm of active ingredient is • [formula]
A standard description of the liquid culture tests is provided in Example 1.
Mycelia fragments or conidia suspensions of a fungus, prepared either freshly from liquid cultures of the fungus or from cryogenic storage, are directly mixed into nutrient broth. DMSO solutions of the test compound (max. 10 mg/mL) is diluted with 0.025% Tween20 by factor 50 and 10 µL of this solution is pipetted into a microtiter plate (96-well format). […] The test plates are incubated in the dark at 24° C. and 96% relative humidity (rh). The inhibition of fungal growth is determined photometrically and visually after 3 - 7 days, depending on the pathosystem, and percent antifungal activity relative to the untreated check is calculated.
Conidia of the fungus from cryogenic storage were directly mixed into nutrient broth (PDB potato dextrose broth). After placing a DMSO solution of the test compositions into a microtiter plate (96-well format), the nutrient broth containing the fungal spores was added.

Alternaria solani = assay: microbe, parasite or virus in culture; assay type: cell-based
Description: as §1
The compositions according to the invention are tested for their biological (fungicidal) activity as dimethylsulfoxide (DMSO) solutions using one or more of the following protocols (Examples 1-1 and 1-2). A standard description of the liquid culture tests is provided in Example 1.
Mycelia fragments or conidia suspensions of a fungus, prepared either freshly from liquid cultures of the fungus or from cryogenic storage, are directly mixed into nutrient broth. DMSO solutions of the test compound (max. 10 mg/mL) is diluted with 0.025% Tween20 by factor 50 and 10 µL of this solution is pipetted into a microtiter plate (96-well format). The nutrient broth containing the fungal spores/mycelia fragments is then added to give an end concentration of the tested compound. The test plates are incubated in the dark at 24° C. and 96% relative humidity (rh). […]
Conidia of the fungus from cryogenic storage were directly mixed into nutrient broth (PDB potato dextrose broth). After placing a DMSO solution of the test compositions into a microtiter plate (96-well format) the nutrient broth containing the fungal spores was added.

Structure (SMILES): CCC(C)C1NC(=O)C2CCCN2C(=O)C(Cc2ccccc2)N(C)C(=O)C(Cc2ccccc2)NC(=O)C(C(C)C)N(C)C(=O)C(C(C)CC)OC(=O)C(C(C)(C)O)N(C)C(=O)C(CC(C)C)NC(=O)C(C(C)C)N(C)C1=O (stereo not drawn) [Aureobasidin A] (cyclo([ξNMeVal(3-OH)][X1][NMeV]F[NMeF]PI[NMeV]L); configuration not given here)
- (A) inhibition (Botrytis cinerea; Aureobasidin A 0.0025 ppm alone (mefentrifluconazole table)): 8%
- (A) inhibition (Botrytis cinerea; Aureobasidin A 0.0050 ppm alone (mefentrifluconazole table)): 7%
- (A) inhibition (Botrytis cinerea; Aureobasidin A 0.01 ppm alone (imazalil table)): 27%
- (A) inhibition (Botrytis cinerea; Aureobasidin A 0.02 ppm alone (fenhexamid table)): 53%
- (A) inhibition (Botrytis cinerea; Aureobasidin A 0.02 ppm alone (imazalil table)): 46%
- (A) inhibition (Botrytis cinerea; Aureobasidin A 0.0200 ppm alone (mefentrifluconazole table)): 22%
- (A) inhibition (Alternaria solani; Aureobasidin A 0.0001 ppm alone, growth determined photometrically after 48 hours): 0%
- (A) inhibition (Alternaria solani; Aureobasidin A 0.0002 ppm alone, 48 hours): 11%
- (A) inhibition (Alternaria solani; Aureobasidin A 0.0006 ppm alone, 48 hours): 0%
- (A) inhibition (Alternaria solani; Aureobasidin A 0.0012 ppm alone, 48 hours): 0%
- (A) inhibition (Alternaria solani; Aureobasidin A 0.0025 ppm alone, 48 hours): 0%
- (A) inhibition (Alternaria solani; Aureobasidin A 0.0050 ppm alone, 48 hours): 0%
- (A) inhibition (Alternaria solani; Aureobasidin A 0.04 ppm alone (fenhexamid table), 48 hours): 40%

Structure (SMILES): C=CCOC(Cn1ccnc1)c1ccc(Cl)cc1Cl (stereo not drawn) [Imazalil, imazalil, reference compound]
- inhibition at 0.0625 ppm (Botrytis cinerea; Botrytis cinerea, Imazalil 0.0625 ppm alone, read-out: (B) inhibition): 5%
- inhibition at 0.125 ppm (Botrytis cinerea; Botrytis cinerea, Imazalil 0.1250 ppm alone, read-out: (B) inhibition): 22%

Structure (SMILES): CC1(C(=O)Nc2ccc(O)c(Cl)c2Cl)CCCCC1 [Fenhexamid, fenhexamid, reference compound]
- inhibition at 0.0125 ppm (Botrytis cinerea; Botrytis cinerea, Fenhexamid 0.0125 ppm alone, read-out: (B) inhibition): 2%
- inhibition at 0.1 ppm (Alternaria solani; Alternaria solani, Fenhexamid 0.10 ppm alone, 48 hours, read-out: (B) inhibition): 0%

Structure (SMILES): CC(O)(Cn1cncn1)c1ccc(Oc2ccc(Cl)cc2)cc1C(F)(F)F (stereo not drawn) [Mefentrifluconazole, mefentrifluconazole, reference compound]
- (B) inhibition (Botrytis cinerea; Mefentrifluconazole 0.0250 ppm alone): 27%

Structure (SMILES): CC1COC(Cn2cncn2)(c2ccc(Oc3ccc(Cl)cc3)cc2Cl)O1 (stereo not drawn) [Difenoconazole, difenoconazole, reference compound]
- inhibition at 0.0156 ppm (Alternaria solani; Alternaria solani, Difenoconazole 0.0156 ppm alone, 48 hours, read-out: (B) inhibition): 30%
- inhibition at 0.0313 ppm (Alternaria solani; Alternaria solani, Difenoconazole 0.0313 ppm alone, 48 hours, read-out: (B) inhibition): 43%
- inhibition at 0.0625 ppm (Alternaria solani; Alternaria solani, Difenoconazole 0.0625 ppm alone, 48 hours, read-out: (B) inhibition): 65%
